The values that follow are results of earlier work, collected in patent US20150190331A1, “NAIL LACQUER COMPOSITION WITH HYPOSENSITIVITY” (Pakaly Enterprise Co., Ltd., priority 2014, published 2015).

The test system of the series is guinea pigs. Conditions: in guinea pigs; International Journal of Toxicology 24(Suppl 5): 53-100, 2005.

For `C=C(C)C(=O)OCCCC` [Butyl Methacrylate], the sensitizer strength entry was “moderate sensitizers”. With `C=C(C)C(=O)OC1CCCCC1` [Cyclohexyl Methacrylate], the sensitizer strength entry is “moderate sensitizers”. For `C=C(C)C(=O)OCCO` [HEMA, hydroxyethylmethacrylate], the sensitizer strength entry is “strong sensitizers”.

For `C=C(C)C(=O)OCCCCCC` [Hexyl Methacrylate], the sensitizer strength entry is “moderate sensitizers”. In the case of `C=C(C)C(=O)OCCCO` [Hydroxypropyl Methacrylate], the sensitizer strength entry was “weak sensitizer”. For the compound `C=C(C)C(=O)OCC(O)COc1ccc(C(C)(C)c2ccc(OCC(O)COC(=O)C(=C)C)cc2)cc1` (centres unmarked) [Isopropylidenediphenyl Bisglycidyl Methacrylate], the sensitizer strength result is given as “strong sensitizers”.

Regarding `C=C(C)C(=O)OCCCCCCCCCCCC` [Lauryl Methacrylate], the sensitizer strength result was “strong sensitizers”. For the compound `C=C(C)C(=O)OCCOCCOCCOC(=O)C(=C)C` [Triethylene Glycol Dimethacrylate], the sensitizer strength result is recorded as “not sensitizers”. Regarding `C=C(C)C(=O)OCC(CC)(COC(=O)C(=C)C)COC(=O)C(=C)C` [Trimethylolpropane Trimethacrylate], the sensitizer strength entry was “strong sensitizers”. As to PEG-4 Dimethacrylate, the sensitizer strength result is “not sensitizers”. As to Urethane Methacrylate, the sensitizer strength entry is “moderate sensitizers”.
